Test results as given in PMC9607537, “Understanding the Antilymphoma Activity of Annona macroprophyllata Donn and Its Acyclic Terpenoids: In Vivo, In Vitro, and In Silico Studies” (Molecules, 2022).
Where two headings read alike, the source gives them in different places.

Experiments:
Balb/c mice = experiment: in vivo; details: for TI Female (therapeutic index, LD50/ED50) / TI Male (therapeutic index, LD50/ED50): LD50 acute oral toxicity / ED50 antilymphoma activity; for TI Female (therapeutic index, LD50/ED50): female mice; for TI Male (therapeutic index, LD50/ED50): male mice; for OECD acute systemic toxicity category: acute oral toxicity, OECD guideline 423; for OECD acute systemic toxicity category / Mortality in acute oral toxicity test: mice; for Mortality in acute oral toxicity test: until end of study (14 days)
Description: (§1) Twenty-four female mice of the Balb/c strain were randomly used to form 8 groups (n = 3). […] The control group was administered with only the vehicle (Tween 80 at 2% in water) and for the compounds, doses of 500 and 1000 mg kg^−1 were administered. […] Subsequently, we sacrificed the animals and extracted the organs (stomach, intestines, spleen, liver, and kidneys) were extracted, reporting the pathological changes, if any.

[1] = tested on: lymph node growth in mice inoculated with U-937 cells; experiment: Antilymphoma activity in Balb/c mice inoculated with U-937 cells; format: in vivo; details: oral, 9 days treatment, mean ± SEM, n = 6; for ED50 Female (inhibition of lymph node growth): female Balb/c mice inoculated with U-937 cells; for ED50 Male (inhibition of lymph node growth): male Balb/c mice inoculated with U-937 cells
Source text: We induced lymphoma following the method of Calzada et al.. We randomly formed fifteen groups of male mice and of female mice (n = 6). […] After cell inoculation, we observed all animals for the following 28 days, after which we orally administered treatments for 9 days. Over the following 28 days, we recorded the weight and survival of the animals. Finally, at day 65, we sacrificed the animals and removed and weighed the left and right axillary and inguinal lymph nodes.

Artemia salina larvae = experiment: Brine shrimp lethality (BSL) test; format: in vivo; details: mortality at 24 h, mean ± SEM
Description: To obtain the LD50 of the thirteen compounds isolated by TLC, we performed the brine shrimp assay according to the procedure described by Meyer et al.. We exposed groups of 10 shrimp in brine to concentrations of 0.5, 1, 5, 10 µg mL^−1 of each product (P1-P13). The concentrations were reached by dissolving the compounds in 2 mL of ethanol, subsequently transferring to different flasks. After evaporating the solvent at room temperature, we introduced the BS and adjusted the volume with artificial seawater to 5 mL. We performed this test in triplicate for each compound.

U-937 cells = experiment: cells; details: read-out: CC50 (median cytotoxic concentration causing 50% cell death)
Description: The cell line U-937 was acquired (ATCC: CRL 1593.2, Middlesex, UK) and characterized as a type of diffuse monocytic NHL; for its propagation two million cells were used and seeded in RPMI 1640 medium (Roswell Park Memorial Institute) supplemented with 2 mM L-glutamine, 10% v/v fetal bovine serum (Thermo), 100 mM 1% sodium pyruvate, and 1% penicillin/streptomycin. The cells were kept in an atmosphere with a concentration of carbon dioxide (CO2) at 5% at 37 °C.
We evaluated the in vitro cytotoxic activity using the cell proliferation reagent WST-1, based on the cleavage of tetrazolium salts to formazan by the enzyme mitochondrial dehydrogenase. For cell proliferation, the Quick Cell Proliferation Kit II (Abcam, Cambridge, UK, Cat. No. ab65475) was used, 96-well plates were used and 2 × 10^5 cells per well were seeded in a final volume of 100 µL/well of culture medium. […] After 24 h, viability was assessed by the addition of 10 µL of WST-1 reagent and the cells were further incubated for 2 h at 37 °C and 5% CO2. Finally, the absorbance at 440 nm was measured using a microplate reader.

in vivo = details: female, Balb/c, mouse, in vivo, po
Description: as §1

U-937 cell line = tested on: U-937 cell line; design: method as in PMID 34638856; details: viability analysis by flow cytometry; cited from earlier work

Compound: (2E,7R,11R)-3,7,11,15-tetramethylhexadec-2-en-1-ol [PT]
- TI Female (therapeutic index, LD50/ED50) (Balb/c mice): 149.03
- TI Male (therapeutic index, LD50/ED50) (Balb/c mice): 171.52
- OECD acute systemic toxicity category (Balb/c mice): category 4 (category 4, low risk > 300 and ≤2000 mg/kg)
- TI (therapeutic index) in both sexes (Balb/c mice): > 100
- LD50 (median lethal dose, acute oral toxicity) (Balb/c mice; female Balb/c mice, single oral dose, 14 days observation, n = 3): >1000 mg/kg
- Mortality in acute oral toxicity test (Balb/c mice; single oral dose): did not cause mortality
- ED50 Female (inhibition of lymph node growth) [1]: 6.71 ± 0.31 mg/kg
- ED50 Male (inhibition of lymph node growth) [1]: 5.83 ± 0.50 mg/kg
- LD50 (median lethal dose causing 50% of A. salina death) (Artemia salina larvae; n = 3): 3.03 ± 0.33 µg/mL
- CC50 (U-937 cells; U-937 cells, 24 h exposure, WST-1, mean ± SEM, n = 3): 296 ± 70 µM

Compound: CN(Cc1cnc2nc(N)nc(N)c2n1)c1ccc(C(=O)N[C@@H](CCC(=O)O)C(=O)O)cc1 [MTX, methotrexate, reference compound]
- LD50 at 14 days (in vivo): 335 ± 0.39 mg/kg
- ED50 Female (inhibition of lymph node growth) [1]: 1.31 ± 0.34 mg/kg
- ED50 Male (inhibition of lymph node growth) [1]: 0.99 ± 0.024 mg/kg
- CC50 (U-937 cell line): 0.5 µM
- CC50 (U-937 cells; Homo sapiens, U-937, 24 h): 243 ± 7 µM

Compound: CC(C)=CCC/C(C)=C/CC/C(C)=C/CC/C(C)=C/CO [Gg, (2E,6E,10E)-3,7,11,15-tetramethylhexadeca-2,6,10,14-tetraen-1-ol]
- TI Female (therapeutic index, LD50/ED50) (Balb/c mice): 138.5
- OECD acute systemic toxicity category (Balb/c mice): category 4 (category 4, low risk > 300 and ≤2000 mg/kg)
- TI (therapeutic index) in both sexes (Balb/c mice): > 100
- Mortality in acute oral toxicity test (Balb/c mice; single oral dose): caused death in the animals
- LD50 at 14 days (in vivo): 742.17 ± 0.34 mg/kg
- ED50 Female (inhibition of lymph node growth) [1]: 7.22 ± 0.51 mg/kg
- ED50 Male (inhibition of lymph node growth) [1]: 6.98 ± 0.57 mg/kg
- LD50 (median lethal dose causing 50% of A. salina death) (Artemia salina larvae; n = 3): 1.41 ± 0.42 µg/mL
- CC50 (U-937 cells; Homo sapiens, U-937, 24 h): 395 ± 5 µM

Compound: CC(=O)OC/C=C(\C)CC/C=C(\C)CCC=C(C)C [FA, [(E,E)-3,7,11-trimethyldodeca-2,6,10-trienyl] acetate]
- TI Female (therapeutic index, LD50/ED50) (Balb/c mice): 169.77
- TI Male (therapeutic index, LD50/ED50) (Balb/c mice): 196.46
- OECD acute systemic toxicity category (Balb/c mice): category 4 (category 4, low risk > 300 and ≤2000 mg/kg)
- TI (therapeutic index) in both sexes (Balb/c mice): > 100
- Mortality in acute oral toxicity test (Balb/c mice; single oral dose): did not cause mortality
- LD50 at 14 days (in vivo): > 1000 mg/kg
- ED50 Female (inhibition of lymph node growth) [1]: 5.89 ± 0.39 mg/kg
- ED50 Male (inhibition of lymph node growth) [1]: 5.09 ± 0.66 mg/kg
- LD50 (median lethal dose causing 50% of A. salina death) (Artemia salina larvae; n = 3, listed as AF): 5.82 ± 0.58 µg/mL
- LD50 (median lethal dose causing 50% of A. salina death) (Artemia salina larvae; n = 3, listed as FA (P10)): 5.82 ± 0.58 µg/mL
- CC50 (U-937 cells; Homo sapiens, U-937, 24 h): 275 ± 80 µM
